One block for each compound: values may come before it.
Tests used:
Format in all cases: binding
FZD2 = target: T1, FZD2 (Homo sapiens, UniProt Q14332); assay: NanoBRET screen HiBiT-FZD2 in HEK293
T1 construct: purchased Promega (in-house HiBiT-GPCR construct library, NanoBRET)
Procedure: (§1) Each tracer candidate was screened across the entire library of HiBiT-GPCR constructs using NanoBRET as the detection modality. As depicted in Figure 4A, the specificity of interactions was evaluated through decrease in BRET due to competitive displacement of a bound tracer by excess parental compound. Each tracer was analyzed for binding to each HiBiT-GPCR fusion in the absence and in the presence of competing parental compound. Briefly, HEK293 cells were transfected with HiBiT-GPCR constructs diluted into promoterless DNA to reduce expression and maximize translocation to the cell surface. Each tracer candidate was then screened at concentrations of 1 μM and 0.1 μM across cells expressing these fusions. Cells were treated for 1.5 h with tracer either alone or in the presence of 20 μM competing parental compound (i.e., control). BRET was measured upon addition of purified LgBiT and subsequent complementation with HiBiT genetically fused to a GPCR. The specificity of interactions was assessed through a decrease in BRET signal due to competitive displacement of the bound tracer. To further gauge the robustness of these interactions, the fold response over the control (i.e., BRETtracer/BRETcontrol) was calculated. We chose a 1.5-fold response, which translates to ≥7-fold signal over noise as the minimal threshold required to score an interaction as positive. […]. Below we highlight the screening results obtained for our exemplary fluorescent tracers based on Clozapine, Amitriptyline and AZD1283.
(§2) HiBiT-GPCR DNA constructs were diluted in 10 mM Tris pH 8 to a final concentration of 0.01 μg/μL, arrayed in 96-well plates and stored at −20 °C. For transfection, HEK293 cells were suspended in Opti-MEM (without phenol red) supplemented with 2% fetal bovine serum (Seradigm) and 100 units/mL penicillin–streptomycin (Gibco) at a final concentration of 220,000 cells/mL and dispensed into white 96-well plates at 90 μL/well. Subsequent transfections and screens were carried using an Agilent Bravo Automated Liquid Handling Platform. First, the 96-well HiBiT DNA arrays were diluted 25-fold in Opti-MEM (without serum or phenol red) to a final concentration of 0.0004 μg/μL and 20 μL of the diluted DNAs were transferred into new 96-well plates. Next, promoterless carrier DNA (1 μg/μL) was diluted 25-fold (0.04 μg/μL) and then dispensed into the diluted arrays at 20 μL/well. Following brief mixing, Viafect transfection reagent (Promega) diluted 16-fold into Opti-MEM was dispensed into the plates at 40 μL/well. After mixing by pipetting, plates were incubated for 10 min on the pipetting station deck. The DNA-transfection reagent complexes were then added to plates containing cells. To facilitate the screen, 10 μL of DNA-transfection reagent complexes were added in duplicates to the top 4 and bottom 4 rows, resulting in two identical 48-well arrays per plate. Plates with transfected cells were incubated for 18–20 h at 37 °C/5% CO2. A screen of each tracer across the entire library using two different concentrations requires duplicate plates of transfected cells. Depending on the number of tracers being screened, transfections can be scaled up using the same ratios. The next day, for each tracer, four 20× screening solutions in tracer dilution buffer (Promega) were prepared: two duplicates at final concentration of 20 μM and two duplicates at a final concentration of 2 μM. A competing unmodified compound was added to one of each duplicate at a final concentration of 400 μM. The four resulting solutions were diluted 4-fold in Opti-MEM without serum or phenol red to generate 5× solutions (5 µM and 0.5 µM tracer +/− 100 μM competing compound). To screen the library, a BioTek MultiFlo FX liquid dispenser was used to dispense 22.5 µL of tracer solution to the top 4 rows and 22.5 µL tracer + competing compound solution to the 4 bottom rows. Plates were briefly mixed on an orbital shaker and incubated for 1.5 h at room temperature. […]

VIPR2 = target: T2, VIPR2 (Homo sapiens, UniProt P41587); assay: NanoBRET screen HiBiT-VIPR2 in HEK293
T2 construct: purchased Promega (in-house HiBiT-GPCR construct library, NanoBRET)
T2 sequence (P41587 24-438): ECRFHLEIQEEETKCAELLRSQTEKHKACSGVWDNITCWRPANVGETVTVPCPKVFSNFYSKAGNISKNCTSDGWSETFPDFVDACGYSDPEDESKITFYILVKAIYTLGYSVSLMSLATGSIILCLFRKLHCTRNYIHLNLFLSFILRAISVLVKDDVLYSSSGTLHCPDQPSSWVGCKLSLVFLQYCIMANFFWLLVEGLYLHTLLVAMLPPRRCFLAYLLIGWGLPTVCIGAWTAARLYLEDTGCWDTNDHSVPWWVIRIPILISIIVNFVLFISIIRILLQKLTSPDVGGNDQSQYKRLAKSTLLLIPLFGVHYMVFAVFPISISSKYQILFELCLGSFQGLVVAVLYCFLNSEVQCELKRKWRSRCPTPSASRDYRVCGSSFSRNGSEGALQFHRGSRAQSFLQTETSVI
Procedure: as §1, §2

NPY1R = target: T3, NPY1R (Homo sapiens, UniProt P25929); assay: NanoBRET screen HiBiT-NPY1R in HEK293
T3 construct: purchased Promega (in-house HiBiT-GPCR construct library, NanoBRET)
T3 sequence (P25929 1-384): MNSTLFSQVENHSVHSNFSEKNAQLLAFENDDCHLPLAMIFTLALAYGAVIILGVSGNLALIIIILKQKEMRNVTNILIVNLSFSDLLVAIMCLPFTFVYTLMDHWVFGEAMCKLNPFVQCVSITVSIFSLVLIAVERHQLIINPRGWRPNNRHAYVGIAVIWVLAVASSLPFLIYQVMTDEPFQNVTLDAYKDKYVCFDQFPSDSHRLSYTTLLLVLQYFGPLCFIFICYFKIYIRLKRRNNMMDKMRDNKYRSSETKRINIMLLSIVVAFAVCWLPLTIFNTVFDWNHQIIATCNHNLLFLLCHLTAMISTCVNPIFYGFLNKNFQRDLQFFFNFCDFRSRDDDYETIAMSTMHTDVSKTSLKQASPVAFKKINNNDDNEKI
Procedure: as §1, §2

T1 sequence (Q14332 24-565): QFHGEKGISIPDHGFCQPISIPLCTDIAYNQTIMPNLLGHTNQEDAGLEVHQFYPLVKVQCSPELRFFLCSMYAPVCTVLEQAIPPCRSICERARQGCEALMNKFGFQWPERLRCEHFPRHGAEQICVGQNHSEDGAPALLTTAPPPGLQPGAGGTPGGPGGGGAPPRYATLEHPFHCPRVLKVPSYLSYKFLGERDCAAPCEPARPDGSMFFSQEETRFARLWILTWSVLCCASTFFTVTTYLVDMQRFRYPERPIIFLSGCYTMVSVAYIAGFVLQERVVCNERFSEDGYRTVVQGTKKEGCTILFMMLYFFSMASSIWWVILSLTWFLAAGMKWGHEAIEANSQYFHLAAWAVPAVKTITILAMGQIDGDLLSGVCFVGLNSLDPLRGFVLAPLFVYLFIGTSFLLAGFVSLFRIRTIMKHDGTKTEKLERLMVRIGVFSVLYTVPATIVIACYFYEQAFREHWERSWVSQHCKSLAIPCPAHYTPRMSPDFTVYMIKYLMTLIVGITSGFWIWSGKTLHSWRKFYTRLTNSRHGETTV

SMILES: CN(C)CCC=C1c2ccccc2CCc2ccc(C(=O)NCCNC(=O)CCOCCOCCOCCOCCNC(=O)CCc3ccc4n3[B-](F)(F)[N+]3=C(c5ccc[nH]5)C=CC3=C4)cc21 [Amitriptyline-a-2-NB590]
NanoBRET Fold Response (FZD2; tracer at 0.1μM): 1.04
NanoBRET Fold Response (FZD2; tracer at 1μM): 1.00
NanoBRET Fold Response (VIPR2; tracer at 0.1μM): 0.95
NanoBRET Fold Response (VIPR2; tracer at 1μM): 1.02
NanoBRET Fold Response (NPY1R; tracer at 0.1μM): 1.00
NanoBRET Fold Response (NPY1R; tracer at 1μM): 1.03

SMILES: O=C(CCc1ccc2n1[B-](F)(F)[N+]1=C(c3ccc[nH]3)C=CC1=C2)NCCOCCOCCNC(=O)OCCOCCN1CCN(C2=Nc3ccccc3Sc3ccccc32)CC1 [Quetiapine-a-2-NB590]
NanoBRET Fold Response (FZD2; FZD2, tracer 0.1μM): 0.96
NanoBRET Fold Response (FZD2; FZD2, tracer 1μM): 0.89
NanoBRET Fold Response (VIPR2; VIPR2, tracer 0.1μM): 0.96
NanoBRET Fold Response (VIPR2; VIPR2, tracer 1μM): 0.96
NanoBRET Fold Response (NPY1R; NPY1R, tracer 0.1μM): 1.03
NanoBRET Fold Response (NPY1R; NPY1R, tracer 1μM): 0.71

SMILES: Cc1cc2c(s1)Nc1ccccc1N=C2N1CCN(CCCNC(=O)CCOCCOCCOCCOCCNC(=O)CCc2ccc3n2[B-](F)(F)[N+]2=C(c4ccc[nH]4)C=CC2=C3)CC1 [Olanzapine-a-2-NB590]
NanoBRET Fold Response (FZD2; FZD2, tracer 0.1μM): 0.98
NanoBRET Fold Response (FZD2; FZD2, tracer 1μM): 0.90
NanoBRET Fold Response (VIPR2; VIPR2, tracer 0.1μM): 1.00
NanoBRET Fold Response (VIPR2; VIPR2, tracer 1μM): 1.05
NanoBRET Fold Response (NPY1R; NPY1R, tracer 0.1μM): 1.02
NanoBRET Fold Response (NPY1R; NPY1R, tracer 1μM): 1.02

SMILES: CN1CCN(C2=Nc3cc(Cl)ccc3Nc3ccc(CNC(=O)CCOCCOCCOCCOCCNC(=O)CCc4ccc5n4[B-](F)(F)[N+]4=C(c6ccc[nH]6)C=CC4=C5)cc32)CC1 [Clozapine-b-2-NB590]
NanoBRET Fold Response (FZD2; FZD2, 0.1μM tracer): 1.01
NanoBRET Fold Response (FZD2; FZD2, 1μM tracer): 1.11
NanoBRET Fold Response (VIPR2; VIPR2, 0.1μM tracer): 1.02
NanoBRET Fold Response (VIPR2; VIPR2, 1μM tracer): 0.96
NanoBRET Fold Response (NPY1R; NPY1R, 0.1μM tracer): 1.00
NanoBRET Fold Response (NPY1R; NPY1R, 1μM tracer): 1.03

NanoBRET Fold Response (FZD2; 0.1μM tracer): 0.95
NanoBRET Fold Response (FZD2; 1μM tracer): 0.95
NanoBRET Fold Response (VIPR2; 0.1μM tracer): 0.99
NanoBRET Fold Response (VIPR2; 1μM tracer): 0.99
NanoBRET Fold Response (NPY1R; 0.1μM tracer): 0.93
NanoBRET Fold Response (NPY1R; 1μM tracer): 0.68
SMILES: COc1ccc2c(n1)c(CCNC(C)=O)cn2CCNC(=O)CCc1ccc2n1[B-](F)(F)[N+]1=C(c3ccc[nH]3)C=CC1=C2 [Azamelatonin-1-NB590]

SMILES: O=C(CCc1ccc2n1[B-](F)(F)[N+]1=C(c3ccc[nH]3)C=CC1=C2)NCc1ccc(C(=O)NCCOCCOCCNCC(O)COc2cccc3ccccc23)cc1 (stereo not drawn) [Propranolol-3-NB590]
NanoBRET Fold Response (FZD2; FZD2, 0.1μM): 0.97
NanoBRET Fold Response (FZD2; FZD2, 1μM): 1.01
NanoBRET Fold Response (VIPR2; VIPR2, 0.1μM): 0.95
NanoBRET Fold Response (VIPR2; VIPR2, 1μM): 1.03
NanoBRET Fold Response (NPY1R; NPY1R, 0.1μM): 1.08
NanoBRET Fold Response (NPY1R; NPY1R, 1μM): 0.99

NanoBRET Fold Response (FZD2; FZD2, 0.1μM tracer): 1.04
NanoBRET Fold Response (FZD2; FZD2, 1μM tracer): 1.02
NanoBRET Fold Response (VIPR2; VIPR2, 0.1μM tracer): 1.14
NanoBRET Fold Response (VIPR2; VIPR2, 1μM tracer): 0.89
NanoBRET Fold Response (NPY1R; NPY1R, 0.1μM tracer): 0.97
NanoBRET Fold Response (NPY1R; NPY1R, 1μM tracer): 1.23
SMILES: O=C(CCOCCOCCOCCOCCNC(=O)CCc1ccc2n1[B-](F)(F)[N+]1=C(c3ccc[nH]3)C=CC1=C2)NCCCN1CCN(C2=Nc3cc(Cl)ccc3Nc3ccccc32)CC1 [Clozapine-a-2-NB590]
